Laboratory results as given in patent publication US20260207568A1, “COMPOSITIONS AND METHODS FOR IMPROVING NEUROLOGICAL DISEASES AND DISORDERS” (CuraSen Therapeutics, Inc., priority 2022, published 2026).
“Also recorded” adds a separate entry of the source.

Tests used:
[1] = tested on: healthy volunteers and subjects with MCI or PD; assay: Safety and tolerability (TEAEs, heart rate, blood pressure, labs), Example 6; conditions: for mean increase in supine heart rate from baseline: no nadolol
Description: (§5) Safety and tolerability were evaluated by questioning for adverse events (AEs), triplicate 12-lead ECGs, laboratory safety tests on urine and blood with multiple chemistry panels including potassium, blood glucose levels, vital sign measurements, and physical examinations at regular time-points during the study.

[2] = tested on: healthy volunteers; assay: Peripheral effects of Compound 03-5 (heart rate, glucose, potassium, tachycardia, tremor, palpitations) with nadolol; format: in vivo, human
Description: Data are presented as individual observations for all available subjects.
(§1) On all dosing days, study drug(s) were administered orally after an overnight fast of at least 8 hours.
(§2) Routine measures of ECG, vital signs, safety labs, physical exams and plasma sample collections for analysis of drug pharmacokinetics (PK) were undertaken according to the Schedule of Events (Table 1).
(§3) In Cohort D2, 8 healthy volunteers aged 55-75 years were admitted on Day −1 for a 5-day confinement period at the research facility. […] Subjects remained in-residency until all study procedures are completed on Day 4. • ? Compound 03-5 dose administration. Compound 03-5 was administered as escalating doses on Day 1 (1 mg), Day 2 (3 mg) and Day 3 (10 mg). CANTAB was conducted twice in all subjects on the day prior to start of dosing (Day −1) to familiarize subjects with the platform, and prior to dosing and approximately 3 hours after Compound 03-5 administration on Days 1, 2, and 3.

[3] = Prior CuraSen studies of low-dose nadolol (CST-107) on peripheral β2-AR agonist effects; conditions: 1 mg nadolol (CST-107), co-administered with 80 μg CST-103
[4] = tested on: healthy volunteers and subjects with MCI or PD; conditions: in vivo
Description: as §5

[5] = clinical; conditions: human, in vivo; for Cmax: po
Description: (§6) Pharmacokinetic (PK) parameters were computed from the individual plasma drug concentrations using a non-compartmental approach.

[6] = tested on: subjects; assay: Visual verbal learning test (VVLT); format: in vivo, human; conditions: for effect on the VVLT (learning and memory): crossover study, 3 agents plus placebo
Description: Subjects are presented 30 words on a screen, one at a time, for 1 second with a 1-second interval between words over a total of 1 minute. This is repeated in 3 trials. After each trial, subjects are asked to recall as many words as they can. […] Since this was a crossover study, everyone who completed Part A was dosed with the 3 agents plus placebo.

[7] = Plasma pharmacokinetics of clenbuterol and nadolol (Example 6); conditions: human, in vivo
Description: as §6

[8] = tested on: healthy subjects; assay: Cognitive performance, CuraSen study CLIN-003; format: in vivo, human; conditions: daily dose of 80 μg CST-103, healthy subjects, preliminary data
Excerpt: (§4) It was hypothesized that by improving cerebral perfusion, particularly in areas of the brain that are relevant for symptoms that are commonly found in PD and MCI, the administration of a β-AR agonist would have a positive effect on clinically relevant symptoms such as memory and cognition.

[9] = tested on: healthy subjects; assay: Adaptive tracking test; format: in vivo, human; conditions: single dose 160 μg clenbuterol
Excerpt: Adaptive tracking measures visuomotor coordination and vigilance. In this test, the subject uses a joystick to move a small dot so that it stays within a continuously moving circle on a computer screen (Boland 1984). During the test, the speed of the circle is adjusted in response to the subject's ability to keep the dot in the circle, ensuring that the test is adapted to the individual subject. […] The improvement shown by subjects is in the same range as that seen with subjects treated with the acetylcholinesterase inhibitor donepezil, which is in clinical use for the treatment of mild to moderate AD (Groeneveld 2016).

[10] = tested on: human subjects; assay: Cerebral blood flow after a single dose of clenbuterol and/or nadolol, or pindolol (Example 1); format: in vivo
[11] = tested on: healthy subjects; assay: Cerebral perfusion by ASL MRI after single doses of clenbuterol (Example 3); format: in vivo, human
Description: In a clinical study, healthy subjects were administered doses of clenbuterol ranging from 20 to 160 μg and ASL MRI was conducted prior to and after dosing with an objective to ascertain whether this neuroimaging method enables the detection of a clinically relevant CNS signal.
In a region of interest (ROI) analysis focusing on the hippocampus, which is well understood to be affected in neurodegenerative disorders, a single dose of 80 μg of clenbuterol causes a robust increase in perfusion (see FIG. 7). […] Our hypothesis is that by improving cerebral perfusion, particularly in areas of the brain that are relevant for symptoms that are commonly found in neurodegenerative diseases such as PD and AD, the administration of a β-AR agonist (such as a β-agent) will have a positive effect on clinically relevant symptoms such as memory and cognition.

[12] = tested on: subjects with MCI or PD; assay: Cerebral blood flow by ASL MRI in subjects with MCI or PD (Example 6); format: in vivo, human; conditions: for CBF MRD in the hippocampus, repeat dose comparison: 80 μg clenbuterol without nadolol; for CBF mean (±SEM) MRD in hippocampus / CBF mean (±SEM) MRD in whole brain: Day 9, N=4
[13] = tested on: healthy volunteers; assay: Cerebral blood flow by ASL MRI in healthy volunteers (Example 6)
Description: In the 4 cohorts of healthy volunteers, study drug was administered as follows:
All subjects received single oral dose of 20 μg clenbuterol on Day 1, and a single oral dose of 40 μg clenbuterol on Day 8, with ASL MRI scans before and 3 hours after dosing on both days.
All subjects received a single oral dose of 80 μg clenbuterol on Day 1, with ASL MRI scans before, and 3 hours 1 day and 2 days after clenbuterol administration to evaluate the longevity of the ASL MRI signal
ASL MRI scans were conducted before and 3 hours after clenbuterol administration on Day 1 and Day 7.
ASL MRI scans were conducted before and 3 hours after clenbuterol administration on Day 2 and Day 9.
All scans were conducted using pseudo continuous ASL MRI. Only subjects with no contraindications to being in a strong magnetic field were evaluated by MRI. Participants were positioned comfortably and supine in the head coil to minimize any motion during the scan with proper back support, and support under the knees for comfort and to reduce motion in the scan, and the head was centered in the head coil and velcro straps or foam padding were used to reduce motion.
Imaging was performed on a GE Signa PET-MR 3T system.
For accurate quantitative measurements of brain structures a high-resolution T1-weighted, 3D volumetric sequences (e.g., MP-RAGE, IR-FSPGR) in the sagittal plane. Scan parameters of the pCASL sequence were: straight axial/transversal slices, labeling duration=1.8s, post-labeling delay=2.0 s, 15-20 cm slab thickness, pCASL average labeling gradient 1 mT/m, pCASL slice selective labelling gradient 10 mT/m, pASL TI1 (QUIPSS II Saturation Time) 800 ms, pASL labeling slab thickness 15-20 cm, 70 volumes, spatial resolution 3 mm in-plane/5 mm through-plane/gap 1 mm, 3D RARE stack-of-spiral or 3D GRASE 4-15 ms readouts, turbo-factor of 8 to 12; echo train of up to 300 ms, 2D EPI Single shot, minimum echo time, and duration 5 min.
Multiple ROIs were evaluated including whole brain, cortex, subcortical, thalamus, amygdala, hippocampus, and cerebellum which were chosen due to their relevance for cognition or alertness, and the periaqueductal grey for its relevance to motor control. Grey matter (GM) masking was applied for reporting of CBF in the GM of these ROIs.
Regional mean CBF values were extracted for each ROI and subsequently, the CBF for each region was compared before and after administration of clenbuterol.
Baseline/Predose versus Postdose change (%) for each subject and each region was calculated as 100*(Postdose_CBF−Baseline_CBF)/(Baseline_CBF). For each region, the cohort summary of CBF change (=mean relative displacement, MRD) was described by the group mean and standard deviation of the individual CBF changes.

[14] = ASL MRI cerebral perfusion, CuraSen study CLIN-002; format: in vivo; conditions: CST-103 80 and 160 μg
Excerpt: as §4

[15] = tested on: healthy volunteers aged 55-75 years; assay: CANTAB cognition battery, Cohort D2; format: in vivo, human; conditions: Compound 03-5 1, 3, 10 mg once daily, 2 h after 3 mg nadolol
Description: Data are presented as mean changes from the within-day pre-dose assessment.
as §3

[16] = tested on: healthy volunteers; assay: Heart rate by triplicate ECG, Compound 03-5 with or without nadolol; format: in vivo, human; conditions: 6 mg Compound 03-5 after pre-administration of 1 mg nadolol
Description: Heart rate was measured by triplicate ECG recordings. Data are presented as means changes from time-matched measures recorded on the day before the first dose of study drug (Day −1).
as §1, §2

[17] = doses of 80 and 160 μg clenbuterol
[18] = 80 μg clenbuterol, absence of nadolol
[19] = 80 μg clenbuterol, presence of 1 mg nadolol

CC(C)(C)NCC(O)COc1cccc2c1CC(O)C(O)C2 (stereo not drawn) [nadolol]
TEAEs considered related to nadolol ([1]; all subjects enrolled): No TEAEs
side effects of β2-agonist (increased heart rate, tremor, palpitations) ([1]; pre-administration of nadolol): mostly eliminated
effect of nadolol on Compound 03-5 increase in heart rate and other peripheral effects (hyperglycemia, hypokalemia) ([2]; Cohort D1, 1 mg nadolol pre-administered, Compound 03-5 orally up to 6 mg): substantially attenuated
effect of nadolol on peripheral effects of Compound 03-5 (heart rate, glucose, potassium, tachycardia, tremor, palpitations) ([2]; Cohort D1, nadolol 1 mg up to 40 mg pre-administered, Compound 03-5 3-12 mg): blocked the peripheral effects
effect of nadolol on peripheral effects of Compound 03-5 on heart rate, etc. ([2]; Cohort D2, nadolol 3 mg pre-administered, Compound 03-5 1-10 mg): similarly blocked the peripheral effects
effects of Compound 03-5 on blood glucose and potassium, tachycardia, tremor and palpitations ([2]; pre-administration of 1 mg nadolol, 6 mg Compound 03-5): Concomitant attenuation
hypokalemia caused by Compound 03-5 ([2]; subjects dosed with nadolol 1-40 mg, Cohorts D1 and D2): attenuation of hypokalemia
attenuation of peripheral β2-AR agonist effects (heart rate, palpitations, tremors, potassium, glucose) [3]: could attenuate these peripheral effects; also recorded: sufficient to inhibit peripheral β2-AR agonist mediated effects
increase in heart rate after 80 μg clenbuterol [4]: effectively blocked
half-life [5]: 7 to 13 h
Cmax ([5]; 1 mg): 1 to 1.5 ng/mL
Cmax ([5]; 4 mg): 2.8 to 4 ng/mL

CC(C)NCC(O)COc1cccc2[nH]ccc12 (stereo not drawn) [pindolol]
effect on the VVLT (learning and memory) [6]: detrimental effect

CC(C)(C)NCC(O)c1ccc(O)c(CO)c1 (stereo not drawn) [salbutamol]
effect on the VVLT (learning and memory) [6]: positive effects on the VVLT

CC(C)(C)NCC(O)c1cc(Cl)c(N)c(Cl)c1 (stereo not drawn) [clenbuterol]
decrease in heart rate from baseline ([1]; 3 hours after 160 μg clenbuterol with pre-administration of 5 mg nadolol): 2.75 bpm
overall safety and tolerability ([1]; all subjects): overall safe and well tolerated
severity of TEAEs ([1]; all subjects enrolled): mild-to-moderate
effects on supine, sitting or standing blood pressure ([1]; clenbuterol in the absence or presence of nadolol): no clinically meaningful effects
subjects with TEAEs considered related to clenbuterol ([1]; healthy volunteers): 12/25
mean increase in supine heart rate from baseline ([1]; healthy volunteers, 3 hours after 20 μg clenbuterol): 7.5 bpm
mean increase in supine heart rate from baseline ([1]; healthy volunteers, 3 hours after 40 μg clenbuterol): 7.5 bpm
mean increase in supine heart rate from baseline ([1]; healthy volunteers, 3 hours after 80 μg clenbuterol): 9.2-12.38 bpm
mean increase in supine heart rate from baseline ([1]; healthy volunteers, 3 hours after 160 μg clenbuterol): 30.5 bpm
increase in heart rate ([1]; subjects with MCI or PD, 80 μg clenbuterol): 10.67-14.65 bpm
subjects with TEAEs considered related to clenbuterol ([1]; subjects with neurodegenerative disease): 6/8
half-life [7]: 12 to 31 h
cognitive performance [8]: improves cognitive performance
performance in adaptive tracking (percent time dot kept within moving circle) [9]: improved adaptive tracking; also recorded: performance in adaptive tracking improves
cognition as measured by adaptive tracking and word recall ([9]; healthy subjects, preliminary data): improves cognition
cerebral blood flow (CBF) relative to baseline ([10]; single dose clenbuterol 160 μg): robust global increase in cerebral blood flow (CBF); also recorded: positive increase in cerebral blood flow
cerebral blood flow (CBF) relative to baseline ([10]; single dose clenbuterol 160 μg and nadolol 5 mg): robust global increase in cerebral blood flow (CBF)
cerebral blood flow (CBF) relative to baseline ([10]; single dose clenbuterol 30 to 160 μg (nadolol 5 mg in some subjects), tracked 3 days): robust global increase in cerebral blood flow (CBF)
effect on the VVLT (learning and memory) [6]: positive effects on the VVLT
VVLT improvement in correctly recalled words ([6]; immediate and delayed recall, crossover study vs placebo): 1.5 to 2 correctly recalled words
cerebral perfusion as measured by CBF ([11]; clenbuterol dose of 40 μg): minimal increase
cerebral perfusion as measured by CBF ([11]; clenbuterol doses below 30 μg): do not produce significant cerebral perfusion increases
improvements in perfusion in brain areas relevant to neurodegenerative disorders [11, 17]: ~25%
increases in cerebral perfusion in hippocampus and thalamus [11, 17]: 20% to 25
increase in hippocampal perfusion, average ([11]; single dose 80 μg clenbuterol, 6 healthy subjects aged 44-52): 25%
cerebral perfusion (ASL MRI) ([11]; single dose 160 μg clenbuterol, healthy subjects): robust global increase in cerebral perfusion
CBF MRD in the hippocampus, repeat dose comparison ([12]; Day 2, 4 subjects): 17.55±6.37%
CBF MRD in the hippocampus, repeat dose comparison ([12]; Day 9, 4 subjects): 14.72±10.56%
CBF mean (±SEM) MRD in hippocampus [12, 18]: 14.7±10.6%
CBF mean (±SEM) MRD in whole brain [12, 18]: 4.8±12.6%
CBF mean (±SEM) MRD in hippocampus [12, 19]: 12.5±5.7%
CBF mean (±SEM) MRD in whole brain [12, 19]: 5.9±8.6%
CBF in multiple brain regions incl. hippocampus and thalamus ([12]; 80 μg clenbuterol, with and without pre-administration of 1 mg nadolol): Significant increases in CBF
CBF mean (±SEM) percent relative displacement (MRD) from baseline in the hippocampus ([13]; 20 μg clenbuterol, no nadolol (first value of the list)): −1.7±1.3%
CBF mean SEM MRD from baseline ([13]; 160 μg clenbuterol about 2.5 h after 5 mg nadolol (Day 9)): 14.0±6.5%
CBF mean (±SEM) percent relative displacement (MRD) from baseline in the hippocampus ([13]; 160 μg clenbuterol in the absence of nadolol): 28.5±4.1%
CBF by ASL MRI ([13]; 20, 40, 80 and 160 μg clenbuterol, absence of nadolol): dose-dependent increase in CBF
CBF change from baseline ([13]; 3 hours after single dose of 80 μg clenbuterol): increases in CBF from baseline are evident
CBF change from baseline ([13]; 24 hours after single dose of 80 μg clenbuterol): decreased but still evident
CBF change from baseline ([13]; 48 hours after single dose of 80 μg clenbuterol): returned to baseline
cerebral perfusion (ASL MRI) [14]: robust global increase in cerebral perfusion
increase in cerebral perfusion in the hippocampus [14]: up to 28%
increase in cerebral perfusion in the thalamus [14]: up to 15%

CC(C)(C)NC[C@H](O)c1cccc(C#N)n1 [Compound 03-5, (S)-6-(2-(tert-butylamino)-1-hydroxyethyl)picolinonitrile]
hypokalemia (blood potassium levels) ([2]; Compound 03-5 monotherapy 0.3 mg-6 mg, Cohorts A1-A5): Dose-dependent increases in hypokalemia
performance in the CANTAB cognition battery [15]: improvements in performance in the CANTAB cognition battery were observed
mean maximum increase in heart rate [16]: 7 beats per minute
